These results are taken from ChEMBL document CHEMBL1129145, “Phosphonate-containing analogs of cholesteryl ester as novel inhibitors of cholesteryl ester transfer protein” (Bioorg Med Chem Lett, 1996).

For orientation: inhibition means the change of the read-out against control, counted positive when it falls. Usually IC50 stands for the concentration that inhibits the measured activity by half.

Assay [1] deals with T1, Cholesteryl ester transfer protein (Homo sapiens) (UniProt P11597).
T1 sequence (whole entry): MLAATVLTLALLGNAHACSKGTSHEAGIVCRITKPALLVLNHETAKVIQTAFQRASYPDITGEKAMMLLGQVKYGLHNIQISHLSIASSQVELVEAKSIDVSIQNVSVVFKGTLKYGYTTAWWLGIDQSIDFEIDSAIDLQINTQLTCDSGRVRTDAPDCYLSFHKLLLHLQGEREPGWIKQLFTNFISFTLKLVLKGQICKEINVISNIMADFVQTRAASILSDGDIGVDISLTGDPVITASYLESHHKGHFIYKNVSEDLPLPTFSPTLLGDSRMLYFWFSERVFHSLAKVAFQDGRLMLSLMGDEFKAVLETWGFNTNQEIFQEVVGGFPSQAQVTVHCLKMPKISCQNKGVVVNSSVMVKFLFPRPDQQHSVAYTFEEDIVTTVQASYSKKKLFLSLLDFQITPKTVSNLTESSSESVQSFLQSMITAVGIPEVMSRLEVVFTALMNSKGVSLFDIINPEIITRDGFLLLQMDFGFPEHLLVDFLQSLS
Kind of assay: Tested for inhibition of [3H]cholesteryl linoleate(CE) transfer from donor HDL to acceptor LDL driven by recombinant human cholesteryl ester transfer protein at 30 micro M.

Assay [2] concerns the target T2, Cholesteryl ester transfer protein (Homo sapiens, UniProt P11597).
T2 sequence (P11597 whole entry): T1 sequence (whole entry)
The experiment in a line: Tested for inhibition of [3H]cholesteryl linoleate(CE) transfer from donor HDL to acceptor LDL driven by recombinant human Cholesteryl ester transfer protein; Inactive.

For assay [3], the target named is T2, Cholesteryl ester transfer protein. The experiment in a line: Tested for inhibition of [3H]cholesteryl linoleate(CE) transfer from donor HDL to acceptor LDL driven by recombinant human Cholesteryl ester transfer protein.
For assay [4] the target is unchanged. The experiment in a line: Tested for inhibition of [3H]cholesteryl linoleate(CE) transfer from donor HDL to acceptor LDL driven by recombinant human cholesteryl ester transfer protein; inactive.
Assay [5] has as its target T1, Cholesteryl ester transfer protein (Homo sapiens). Kind of assay: Tested for inhibition of [3H]cholesteryl linoleate(CE) transfer from donor HDL to acceptor LDL driven by recombinant human Cholesteryl ester transfer protein at 30 micro M.
Assay [6] has as its target T2, Cholesteryl ester transfer protein. The experiment in a line: Tested for inhibition of [3H]cholesteryl linoleate(CE) transfer from donor HDL to acceptor LDL driven by recombinant human cholesteryl ester transfer protein.
Assay [7] shares this target. The experiment in a line: Tested for inhibition of [3H]cholesteryl linoleate(CE) transfer from donor HDL to acceptor LDL driven by recombinant human cholesteryl ester transfer protein; Inactive.

`CCCCCCCCCCCCCCCCCCP(=O)(O)OC`: in assay [1], the inhibition is 46%.
In the case of `CCCCCCCCCCCCCCCCCCP(=O)(O)OC1c2ccccc2-c2ccccc21`, the IC50 entry in assay [2] is recorded as “Not Active”.
Take `CCCCCCCCCCCCCc1n[nH]c(=S)n1-c1ccccc1`: in assay [3], the IC50 is 1.5 µM.
Same read-out and setting: to `CCCCCCCCCCCCCCP(=O)(O)Oc1ccc2ccccc2c1` belongs 24 µM.
Turning to `CCCCCCCCCCCCCCP(=O)(O)OCc1cccc(Oc2ccccc2)c1`, in assay [3], the IC50 came out at 6 µM.
Consider `CCCCCC[PH](=O)OCc1ccccc1` (stereo not given), for which the IC50 entry in assay [2] is listed as “Not Active”.
Regarding `CCCCCCCCCCCCCCCCCC[PH](=O)O[C@H]1CC[C@@]2(C)C(CC[C@H]3[C@@H]4CC[C@H]([C@H](C)CCCC(C)C)[C@@]4(C)CC[C@@H]32)C1` (stereo not given in full), the IC50 result in assay [4] is recorded as “Not Active”.
Consider `CCCCCCCCCCCCCCP(=O)(O)OCc1ccoc1`, for which, in assay [3], the IC50 is 15 µM.
Same read-out and setting: the value for `CCCCCCCCCCCCCCP(=O)(O)OCc1ccccc1` was 5 µM.
Regarding `CCCCCCCCCCCCCCCCCCP(=O)(O)O[C@H]1CC[C@@]2(C)C(CC[C@H]3[C@@H]4CC[C@H]([C@H](C)CCCC(C)C)[C@@]4(C)CC[C@@H]32)C1` (stereo not given in full), in assay [5], the inhibition stood at 30%.
Regarding `CCCCCCCCCC[PH](=O)OCc1ccccc1` (stereo not given), in assay [2], the concentration for half-maximal inhibition (IC50) entry is reported as “Not Active”.
`CCCCCCCCCCCCCCCCCCP(=O)(O)Oc1cc2ccccc2c2ccccc12`: the IC50 result in assay [2] was “Not Active”.
`CCCCCCCCCCCCCCCCCC[PH](=O)OCc1ccccc1` (stereo not given): the IC50 result in assay [2] is “Not Active”.
For `CCCCCCCCCCCCCCCCCCP(=O)(O)OCc1ccccc1`, the concentration for half-maximal inhibition (IC50) in assay [6] is 2 µM.
`CCCCCCCCCCCCCCCCCC[PH](=O)O`: the inhibition in assay [5] turned out to be 28%.
On to `CCCCCCCCCCCCCCCCCCP(=O)(O)OCc1cccnc1`, for which the IC50 result in assay [2] is given as “Not Active”.
`CCCCCCCCCCCCCCCCCCP(=O)(OC)OCc1ccccc1` (stereo not given): the IC50 result in assay [7] was “Not Active”.
As to `CCCCCCCCCCCCCCCCCCP(=O)(O)Oc1ccc2c(c1)Cc1ccccc1-2`, in assay [2], the IC50 entry is “Not Active”.
Take `CCCCCCCCCCCCCCCP(=O)(O)OCc1ccccc1`: the IC50 in assay [3] amounted to 4 µM.
Turning to `CCCCCCCCCCCCCCCCCCP(=O)(O)CCc1ccccc1`, the IC50 in assay [6] stood at 14 µM.
